Where “and” joins values, the source holds several entries; their conditions need not be identical. Equal values may be shown once. Records with an inconclusive call do not appear.
System: CD8F1 mice, subcutaneous mammary adenocarcinoma, T/C%
Test: NCI In Vivo Anticancer Drug Screen. Data for tumor model Mammary Adenocarcinoma CD8F1 (subcutaneous) in CD8F1
Conditions: higher = larger tumour
Summary of the method: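 Transplantable tumors were established in mice, animals were dosed with compound or vehicle, and survival or tumor size was then measured in both groups. The treated result was divided by the control result.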

[1] = endpoint: median tumor weight change, dose: 250.0 mg/kg/injection, schedule: Q01DX001 (ip), vehicle: Klucel (hydroxypropylcellulose) (HPC)

SMILES: CC[C@@H](C)[C@@H]1NC(=O)C(NC(=O)C(CC(C)C)N(C)C(=O)C2CCCN2C(=O)C(C)O)C(C)OC(=O)C(Cc2ccc(OC)cc2)N(C)C(=O)C2CCCN2C(=O)C(CC(C)C)NC(=O)C(C)C(=O)C(C(C)C)OC(=O)C[C@H]1O (stereo not given in full)
- T/C (endpoint: median tumor weight change, dose: 20.0 micrograms/kg/injection, schedule: Q01DX001 (ip), vehicle: distilled water + alcohol): 73 % of control
- T/C (endpoint: median tumor weight change, dose: 40.0 micrograms/kg/injection, schedule: Q01DX001 (ip), vehicle: distilled water + alcohol): 55 % of control
- T/C (endpoint: median tumor weight change, dose: 300.0 micrograms/kg/injection, schedule: Q01DX001 (ip), vehicle: distilled water + alcohol): 63 % of control
- T/C (endpoint: median tumor weight change, dose: 320.0 micrograms/kg/injection, schedule: Q01DX001 (ip), vehicle: distilled water + alcohol): 88 % of control
- T/C (endpoint: median tumor weight change, dose: 600.0 micrograms/kg/injection, schedule: Q01DX001 (ip), vehicle: distilled water + alcohol): 71 % of control
- T/C (endpoint: median tumor weight change, dose: 1200.0 micrograms/kg/injection, schedule: Q01DX001 (ip), vehicle: distilled water + alcohol): 37 % of control

SMILES: CC1CCC2N(C1)CC1C3CC4C(CC(=O)C5CC(O)CCC54C)C3CCC1C2(C)O (stereo not given)
- T/C (endpoint: mean tumor weight, dose: 2.5 mg/kg/injection, schedule: Q07DX006 (ip), vehicle: saline with Tween-80): 87 % of control
- T/C (endpoint: mean tumor weight, dose: 5.0 mg/kg/injection, schedule: Q07DX006 (ip), vehicle: saline with Tween-80): 81 % of control
- T/C (endpoint: mean tumor weight, dose: 10.0 mg/kg/injection, schedule: Q07DX006 (ip), vehicle: saline with Tween-80): 90 % of control
- T/C (endpoint: mean tumor weight, dose: 20.0 mg/kg/injection, schedule: Q07DX006 (ip), vehicle: saline with Tween-80): 89 % of control

SMILES: NC(=O)c1[nH]nc(C2OC(CO)C(O)C2O)c1O (stereo not given)
- T/C (endpoint: median tumor weight (est.), dose: 0.31 mg/kg/injection, schedule: Q07DX005 (ip), vehicle: saline): 123 % of control
- T/C (endpoint: median tumor weight (est.), dose: 0.62 mg/kg/injection, schedule: Q07DX005 (ip), vehicle: saline): 85 % of control
- T/C (endpoint: median tumor weight (est.), dose: 1.25 mg/kg/injection, schedule: Q07DX005 (ip), vehicle: saline): 77 % of control
- T/C (endpoint: median tumor weight (est.), dose: 2.5 mg/kg/injection, schedule: Q07DX005 (ip), vehicle: saline): 28 % of control
- T/C (endpoint: median tumor weight (est.), dose: 5.0 mg/kg/injection, schedule: Q07DX005 (ip), vehicle: saline): 53 % of control
- T/C (endpoint: median tumor weight (est.), dose: 10.0 mg/kg/injection, schedule: Q07DX005 (ip), vehicle: saline): 29 % of control

SMILES: S=C(Nc1ccc(Cl)c(Cl)c1)N1c2ccccc2-n2cccc2C1c1cccnc1 (stereo not given)
- T/C [1]: 48 % of control and 67 % of control
- T/C (endpoint: median tumor weight change, dose: 500.0 mg/kg/injection, schedule: Q01DX001 (ip), vehicle: Klucel (hydroxypropylcellulose) (HPC)): 49 % of control and 57 % of control
- T/C (endpoint: median tumor weight change, dose: 1000.0 mg/kg/injection, schedule: Q01DX001 (ip), vehicle: Klucel (hydroxypropylcellulose) (HPC)): 50 % of control and 70 % of control
- T/C (endpoint: median tumor weight change, dose: 2000.0 mg/kg/injection, schedule: Q01DX001 (ip), vehicle: Klucel (hydroxypropylcellulose) (HPC)): -11 % of control

SMILES: COC(C(=O)C(O)C(C)O)C1CC2C=C3C=C(OC4CC(OC5CC(O)C(OC)C(C)O5)C(OC(C)=O)C(C)O4)C(C)C(=O)C3=C(O)C2=C(O)C1OC1CC(OC2CC(OC3CC(C)(O)C(OC(=O)C(C)C)C(C)O3)C(O)C(C)O2)C(O)C(C)O1 (stereo not given)
- T/C (endpoint: median tumor weight (est.), dose: 25.0 micrograms/kg/injection, schedule: Q07DX005 (ip), vehicle: saline): 74 % of control
- T/C (endpoint: median tumor weight (est.), dose: 50.0 micrograms/kg/injection, schedule: Q07DX005 (ip), vehicle: saline): 78 % of control
- T/C (endpoint: median tumor weight (est.), dose: 100.0 micrograms/kg/injection, schedule: Q07DX005 (ip), vehicle: saline): 65 % of control
- T/C (endpoint: median tumor weight (est.), dose: 200.0 micrograms/kg/injection, schedule: Q07DX005 (ip), vehicle: saline): 48 % of control
- T/C (endpoint: median tumor weight (est.), dose: 400.0 micrograms/kg/injection, schedule: Q07DX005 (ip), vehicle: saline): 73 % of control

SMILES: O=C1OC(C(O)CO)C(O)=C1O (stereo not given)
- T/C (endpoint: median tumor weight (est.), dose: 100.0 mg/kg/injection, schedule: Q07DX005 (ip), vehicle: saline): 70 % of control
- T/C (endpoint: median tumor weight (est.), dose: 200.0 mg/kg/injection, schedule: Q07DX005 (ip), vehicle: saline): 28 % of control
- T/C (endpoint: median tumor weight (est.), dose: 400.0 mg/kg/injection, schedule: Q07DX005 (ip), vehicle: saline): 110 % of control
- T/C (endpoint: median tumor weight (est.), dose: 800.0 mg/kg/injection, schedule: Q07DX005 (ip), vehicle: saline): 61 % of control

SMILES: O=c1nc(-c2ccco2)sc(=O)[nH]1
- T/C (endpoint: median tumor weight change, dose: 31.25 mg/kg/injection, schedule: Q01DX001 (ip), vehicle: Klucel (hydroxypropylcellulose) (HPC)): 123 % of control
- T/C (endpoint: median tumor weight change, dose: 62.5 mg/kg/injection, schedule: Q01DX001 (ip), vehicle: Klucel (hydroxypropylcellulose) (HPC)): 63 % of control
- T/C (endpoint: median tumor weight change, dose: 125.0 mg/kg/injection, schedule: Q01DX001 (ip), vehicle: Klucel (hydroxypropylcellulose) (HPC)): 120 % of control
- T/C [1]: 53 % of control

SMILES: C1CN2CCC1CC2
- T/C (endpoint: median tumor weight (est.), dose: 6.25 mg/kg/injection, schedule: Q07DX005 (ip), vehicle: saline with Tween-80): 111 % of control
- T/C (endpoint: median tumor weight (est.), dose: 12.5 mg/kg/injection, schedule: Q07DX005 (ip), vehicle: saline with Tween-80): 77 % of control

SMILES: CN1C(=O)C(=Cc2ccc(O)cc2)C(=O)N(C)C1=O
- T/C (endpoint: median tumor weight change, dose: 125.0 mg/kg/injection, schedule: Q01DX001 (ip), vehicle: saline with Tween-80): 94 % of control
- T/C (endpoint: median tumor weight change, dose: 500.0 mg/kg/injection, schedule: Q01DX001 (ip), vehicle: saline with Tween-80): 165 % of control

SMILES: COc1cc(Cc2nccc3cc(OC)c(OC)cc23)c(C(C)=O)c(OC)c1
- T/C (endpoint: median tumor weight (est.), dose: 10.0 mg/kg/injection, schedule: Q07DX005 (ip), vehicle: suspension in saline): 57 % of control
- T/C (endpoint: median tumor weight (est.), dose: 20.0 mg/kg/injection, schedule: Q07DX005 (ip), vehicle: suspension in saline): 45 % of control
- T/C (endpoint: median tumor weight (est.), dose: 40.0 mg/kg/injection, schedule: Q07DX005 (ip), vehicle: suspension in saline): 46 % of control
- T/C (endpoint: median tumor weight (est.), dose: 80.0 mg/kg/injection, schedule: Q07DX005 (ip), vehicle: suspension in saline): 61 % of control
- T/C (endpoint: median tumor weight (est.), dose: 160.0 mg/kg/injection, schedule: Q07DX005 (ip), vehicle: suspension in saline): 49 % of control

SMILES: Cc1c2ccc3ccccc3c2c[n+]2ccccc12
- T/C (endpoint: median tumor weight (est.), dose: 2.5 mg/kg/injection, schedule: Q07DX005 (ip), vehicle: Klucel (hydroxypropylcellulose) (HPC)): 84 % of control
- T/C (endpoint: median tumor weight (est.), dose: 5.0 mg/kg/injection, schedule: Q07DX005 (ip), vehicle: Klucel (hydroxypropylcellulose) (HPC)): 86 % of control
- T/C (endpoint: median tumor weight (est.), dose: 10.0 mg/kg/injection, schedule: Q07DX005 (ip), vehicle: Klucel (hydroxypropylcellulose) (HPC)): 83 % of control
- T/C (endpoint: median tumor weight (est.), dose: 20.0 mg/kg/injection, schedule: Q07DX005 (ip), vehicle: Klucel (hydroxypropylcellulose) (HPC)): 57 % of control

SMILES: O=C1c2c(O)ccc(O)c2C(=O)c2c(NCCNCCO)ccc(NCCNCCO)c21
- T/C (endpoint: median tumor weight (est.), dose: 0.25 mg/kg/injection, schedule: Q07DX005 (ip), vehicle: acid diluted with saline): 106 % of control
- T/C (endpoint: median tumor weight (est.), dose: 0.5 mg/kg/injection, schedule: Q07DX005 (ip), vehicle: acid diluted with saline): 93 % of control
- T/C (endpoint: median tumor weight (est.), dose: 0.5 mg/kg/injection, schedule: Q07DX005 (ip), vehicle: water): 59 % of control
- T/C (endpoint: median tumor weight (est.), dose: 1.0 mg/kg/injection, schedule: Q07DX005 (ip), vehicle: acid diluted with saline): 82 % of control
- T/C (endpoint: median tumor weight (est.), dose: 1.0 mg/kg/injection, schedule: Q07DX005 (ip), vehicle: water): 112 % of control
- T/C (endpoint: median tumor weight (est.), dose: 2.0 mg/kg/injection, schedule: Q07DX005 (ip), vehicle: acid diluted with saline): 65 % of control

SMILES: CC(C)(C)c1ccc(CN2CCN(C(c3ccccc3)c3ccc(Cl)cc3)CC2)cc1 (stereo not given)
- T/C (endpoint: median tumor weight change, dose: 8.0 mg/kg/injection, schedule: Q01DX001 (ip), vehicle: Klucel (hydroxypropylcellulose) (HPC)): 98 % of control
- T/C (endpoint: median tumor weight change, dose: 16.0 mg/kg/injection, schedule: Q01DX001 (ip), vehicle: Klucel (hydroxypropylcellulose) (HPC)): 96 % of control
- T/C (endpoint: median tumor weight change, dose: 32.0 mg/kg/injection, schedule: Q01DX001 (ip), vehicle: Klucel (hydroxypropylcellulose) (HPC)): 101 % of control
- T/C (endpoint: median tumor weight change, dose: 64.0 mg/kg/injection, schedule: Q01DX001 (ip), vehicle: Klucel (hydroxypropylcellulose) (HPC)): 108 % of control
- T/C (endpoint: median tumor weight change, dose: 128.0 mg/kg/injection, schedule: Q01DX001 (ip), vehicle: Klucel (hydroxypropylcellulose) (HPC)): 55 % of control
- T/C (endpoint: median tumor weight change, dose: 256.0 mg/kg/injection, schedule: Q01DX001 (ip), vehicle: Klucel (hydroxypropylcellulose) (HPC)): 84 % of control

SMILES: COCCCNC1=C(C#N)C(=O)NC(c2cccc([N+](=O)[O-])c2)S1 (stereo not given)
- T/C (endpoint: median tumor weight change, dose: 1000.0 mg/kg/injection, schedule: Q01DX001 (ip), vehicle: saline with Tween-80): 95 % of control and 110 % of control
- T/C (endpoint: median tumor weight change, dose: 2000.0 mg/kg/injection, schedule: Q01DX001 (ip), vehicle: saline with Tween-80): 79 % of control

SMILES: CO[C@H]1C[C@](C)(O)Cc2cc3c(c(O)c21)C(=O)c1c(O)cc2c(c1C3=O)O[C@@H]1O[C@@]2(C)[C@H](O)[C@@H](N(C)C)[C@@H]1O
- T/C (endpoint: median tumor weight (est.), dose: 7.0 mg/kg/injection, schedule: Q07DX005 (ip), vehicle: saline with Tween-80): 62 % of control
- T/C (endpoint: median tumor weight (est.), dose: 11.0 mg/kg/injection, schedule: Q07DX005 (ip), vehicle: saline with Tween-80): 60 % of control
- T/C (endpoint: median tumor weight (est.), dose: 16.0 mg/kg/injection, schedule: Q07DX005 (ip), vehicle: saline with Tween-80): 75 % of control
- T/C (endpoint: median tumor weight (est.), dose: 24.0 mg/kg/injection, schedule: Q07DX005 (ip), vehicle: saline with Tween-80): 64 % of control
- T/C (endpoint: median tumor weight (est.), dose: 48.0 mg/kg/injection, schedule: Q07DX005 (ip), vehicle: saline with Tween-80): 10 % of control

From PubChem BioAssay AID220 (DTP/NCI, 2004)
